pKi: −log10 of the molar value. Where a name gives a salt, the structure may show the parent alone.

The target in the first assay is neuronal nicotinic acetylcholine receptors. Briefly: [3H]-cytisine ligand-receptor binding assay (crude synaptic membranes from whole rat brain). Conditions: Table 1; [3H]-cytisine 1.25 nM, 4° C., 60 min; Ki by Cheng and Prusoff; read-out: [^3 H]-Cyt Binding. On the procedure:
For the purpose of identifying compounds as nicotinic acetylcholinergic agents which are capable of interacting with neuronal nicotinic acetylcholine receptors in the brain, a ligand-receptor binding assay was carried out as the initial screen. Compounds of the present invention were effective at interacting with neuronal nicotinic acetylcholine receptors as assayed for their ability to displace radioligand from neuronal nicotinic acetylcholine receptors labeled with [^3 H]-cytisine ([^3 H]-CYT).
A. Protocol For Determination of Nicotinic Acetylcholine Receptor Binding Potencies of Ligands
Binding of [^3 H]-CYT to nicotinic acetylcholine receptors was accomplished using crude synaptic membrane preparations from whole rat brain (Pabreza et al., Molecular Pharmacol., 1990, 39:9). Washed membranes were stored at -80° C. prior to use. Frozen aliquots were slowly thawed and resuspended in 20 volumes of buffer (containing: 120 mM NaCl, 5 mM KCl, 2 mM MgCl2, 2 mM CaCl2 and 50 mM Tris-Cl, pH 7.4 @4° C.). After centrifuging at 20,000×g for 15 minutes, the pellets were resuspended in 30 volumes of buffer. Homogenate (containing 125-150 μg protein) was added to triplicate tubes containing concentrations of test compound and [^3 H]-CYT (1.25 nM) in a final volume of 500 μL. Samples were incubated for 60 minutes at 4° C., then rapidly filtered through Whatman GF/B filters presoaked in 0.5% polyethylimine using 3×4 mL of ice-cold buffer. The filters were counted in 4 mL of Ecolume® (ICN). Nonspecific binding was determined in the presence of 10 μM (-)-nicotine and values were expressed as a percentage of total binding.
For `Cc1ccc2oc([C@@H]3CCCN3)cc2n1` [Example 5, 5-methyl-2-(2-(S)-pyrrolidinyl)furo[3,2-b]pyridine dihydrochloride], the pKi is 6.45.

With `Clc1cnc2cc([C@@H]3CCCN3)oc2c1` [Example 7, 6-chloro-2-(2-(S)-pyrrolidinyl)-furo[3,2-b]pyridine dihydrochloride], the pKi is 6.06.

As to `CN1CCC[C@H]1c1cc2ccncc2o1` [Example 10, 2-(1-methyl-2-(S)-pyrrolidinyl)furo[2,3-c]pyridine dihydrochloride], the pKi was 6.68.

For `Clc1ccc2oc([C@@H]3CCCN3)cc2n1` [Example 11, 5-chloro-2-(2-(S)-pyrrolidinyl)-furo[3,2-b]pyridine hydrochloride], the pKi is 7.24.

Take `Clc1cnc2oc([C@@H]3CCCN3)cc2c1` [Example 13, 5-chloro-2-(2-(S)-pyrrolidinyl)-furo[2,3-b]pyridine hydrochloride]: the pKi is 5.35.

Consider `CN1CCC[C@H]1c1cc2cc(Cl)cnc2o1` [Example 14, 5-chloro-2-(1-methyl-2-(S)-pyrrolidinyl)-furo[2,3-b]pyridinedihydrochloride], for which the pKi is 6.74.

Take `c1cc2cc(C34CCCN3CCC4)oc2cn1` [Example 17, 2-(Hexahydro-1H-7a-pyrrolizinyl)furo[2,3-c]pyridine dihydrochloride]: the pKi was 7.06.

Turning to `c1cnc2cc([C@@H]3CC[C@H]4CCCN43)oc2c1` [Example 19, exo-2-(Hexahydro-1H-3-(S)-pyrrolizinyl)furo[3,2-b]pyridine dihydrochloride], the pKi was 5.40.

For the compound `c1cnc2cc([C@H]3CC[C@@H]4CCCN43)oc2c1` [Example 20, exo-2-(Hexahydro-1H-3-(R)-pyrrolizinyl)furo[3,2-b]pyridine dihydrochloride], the pKi is 6.40.

For the compound `c1cnc2cc(CN3CCCC3)oc2c1` [Example 22, 1-Pyrrolidinylmethyl-(2-furo[3,2-b]pyridine)], the pKi is 6.95.

As to `Clc1ccc2oc(C34CCCN3CCC4)cc2n1` [Example 23, 5-Chloro-2-(hexahydro-1H-7a-pyrrolizinyl)furo[3,2-b]pyridinehydrochloride], the pKi was 9.21.

For the compound `Clc1cc2oc([C@@H]3CCCN3)cc2nc1Cl` [Example 25, 5,6-Dichloro-2-(2-(S)-pyrrolidinyl)furo [3,2-b]pyridine hydrochloride], the pKi was 6.99.

`Cc1ccc2sc(C34CCCN3CCC4)cc2n1` [Example 27, dihydrochloride]: the pKi is 7.57.

Consider `Cc1ccc2oc([C@H]3CCCN3C)cc2n1` [Example 30, 5-methyl-2-(1-methyl-2-(R)-pyrrolidinyl)-furo[3,2-b]pyridinedihydrochloride], for which the pKi is 7.00.

Turning to `CN1CCC[C@@H]1c1cc2nc(Cl)ccc2o1` [Example 32, 5-chloro-2-(1-methyl-2-(R)-pyrrolidinyl)-furo[3,2-b]pyridinehydrochloride], the pKi is 7.27.

For `c1cnc2oc([C@@H]3CCCN3)cc2c1` [Example 36, 2-(2-(S)-pyrrolidinyl)furo[2,3-b]pyridine hydrochloride], the pKi is 6.21.

For `CN1CCC[C@H]1c1cc2cnccc2o1` [Example 37, 2-(1-methyl-2-(S)-pyrrolidinyl)furo[3,2-c]pyridine dihydrochloride], the pKi was 5.75.

Consider `CN1CCC[C@@H]1c1cc2nc(Cl)c(Cl)cc2o1` [Example 40, 5,6-Dichloro-2-(1-methyl-2-(R)-pyrrolidinyl)furo[3,2-b]pyridine hydrochloride], for which the pKi was 7.49.

As for `c1cnc2cc([C@H]3N[C@@H]4CC[C@H]3C4)oc2c1` [Example 41, 2-((1R,4S)-2-aza-3-(S)-bicyclo[2.2.1]heptyl)-furo[3,2-b]pyridine dihydrochloride], the pKi was 7.09.

For `Clc1ccc2oc([C@H]3N[C@@H]4CC[C@H]3C4)cc2n1` [Example 43, 2-((1R,4S)-2-aza-3-(S)-bicyclo[2.2.1]heptyl)-5-chloro-furo[3,2-b]pyridine dihydrochloride], the pKi was 6.34.

Regarding `CN1[C@@H]2CC[C@@H](C2)[C@H]1c1cc2nc(Cl)ccc2o1` [Example 44, 2-((1R,4t)-2-aza-3-(S)-bicyclo[2.2.1]heptyl)-5-chloro-2-methylfuro[3,2-b]pyridine dihydrochloride], the pKi was 8.30.

Consider `Clc1cc2oc([C@H]3N[C@@H]4CC[C@H]3C4)cc2nc1Cl` [Example 45, 2-((1R,4S)-2-aza-3-(S)-bicyclo[2.2.1]heptyl)-5,6-dichlorofuro[3,2-b]pyridine dihydrochloride], for which the pKi was 6.69.

On to `Brc1cnc2cc([C@@H]3CCCN3)oc2c1` [Example 46, 6-bromo-2-(2-(S)-pyrrolidinyl)furo[3,2-b]pyridine dihydrochloride], for which the pKi was 6.33.

For `CN1CCC[C@H]1c1cc2ncc(Br)cc2o1` [Example 47, 6-bromo-2-(1-methyl-2-(S)-pyrrolidinyl)furo[3,2-b]pyridine dihydrochloride], the pKi was 7.42.

`CN1CCC[C@@H]1c1cc2nc(Cl)c(Br)cc2o1` [Example 50, 6-bromo-5-chloro-2-(-1-methyl-2(R)-pyrrolidinyl)furo[3,2-b]pyridine hydrochloride]: the pKi is 7.34.

Regarding `CN1CCC[C@H]1c1cc2nccc(Cl)c2o1` [Example 51, 7-chloro-2-(1-methyl-2-(S)-pyrrolidinyl)furo[3,2-b]pyridine hydrochloride], the pKi is 6.35.

The assay is the same for the next values; noted with them: Table 2; [3H]-cytisine binding; read-out: Binding.
As for “5-chloro-2-(1-methyl-2-(S)-pyrrolidinyl)-6-(3-pyridyl)furo[3,2-b]pyridine hydrochloride [Example 59]”, the pKi is 6.17.

Turning to `Clc1ccc2oc([C@H]3C[C@@H]4CC[C@H]3N4)cc2n1` (relative stereo) [Example 135, (±)-2-(7-aza-2-exo-bicyclo[2.2.1]heptyl)-5-chlorofuro[3,2-b]pyridine hydrochloride], the pKi is 8.49.

For `Fc1ccc2oc([C@H]3C[C@@H]4CC[C@H]3N4)cc2n1` (relative stereo) [Example 136, (±)-2-(7-aza-2-exo-bicyclo[2.2.1]heptyl)-5-fluorofuro[3,2-b]pyridine hydrochloride], the pKi is 8.62.

As to `c1ccc(-c2cnc3cc([C@@H]4CCCN4)oc3c2)cc1` [Example 53, 2-((S)-pyrrolidinyl)-6-phenylfuro[3,2-b]pyridine dihydrochloride], the pKi was 6.47.

As to `CN1CCC[C@H]1c1cc2ncc(-c3ccccc3)cc2o1` [Example 54, 2-(1-methyl-2-(S)-pyrrrolidinyl)-6-phenylfuro[3,2-b]pyridinedihydrochloride], the pKi was 6.98.

As for `CN1CCC[C@@H]1c1cc2nc(Cl)c(-c3ccccc3)cc2o1` [Example 56, 5-chloro-2-(1-methyl-2-(R)-pyrrolidinyl)-6-phenyl furo[3,2-b]pyridine hydrochloride], the pKi is 7.89.

`Clc1nc2cc([C@H]3CCCN3)oc2cc1C=Cc1ccncc1` [Example 58, 5-chloro-2-(2-(R)-pyrrolidinyl)-6-(2-(4-pyridylethenyl)furo[3,2-b]pyridine hydrochloride]: the pKi was 9.51.

Still in this assay, the particulars now being: preferred compounds.
For the compound `Clc1ccc2oc(C34CCCN3CCC4)cc2n1` [Example 23, 5-Chloro-2-(hexahydro-1H-7a-pyrrolizinyl)furo[3,2-b]pyridinehydrochloride], the “binding to the nicotinic acetylcholine receptor (in words)” value is “most potent binders”.

As for `Clc1nc2cc([C@H]3CCCN3)oc2cc1C=Cc1ccncc1` [Example 58, 5-chloro-2-(2-(R)-pyrrolidinyl)-6-(2-(4-pyridylethenyl)furo[3,2-b]pyridine hydrochloride], the “binding to the nicotinic acetylcholine receptor (in words)” value is “most potent binders”.

Source of the values: patent US6001849A, “Furopyridine, thienopyridine pyrrolopyridine useful in controlling chemical synaptic transmission” (Abbott Laboratories, priority 1997, dated 1999).
